Test results from patent US6579853B2, “Brain cell or nerve cell-protective agents comprising ginsenoside Rb1” (Japan Science and Technology Corporation, priority 1998, dated 2003).

Columns and labels:
[1] = test system: SH-SP rats with MCA permanent occlusion; experiment: Water maze test (place navigation ability) after MCA permanent occlusion, intravenous infusion; format: in vivo, rat
Procedure: (§1) First, we examined the actions of intravenous infusion of ginsenoside Rb1. For this purpose, for example, male SH-SP rats weighing 250˜300 g at the age of 12-13 weeks were used. The animals were bred in an air-conditioned room with a 12:12 hour light-dark cycle, and water and feeds were supplied ad libitum. The cortical branch of the left middle cerebral artery (MCA) was coagulated and cut. A single intravenous administration of ginsenoside Rb1 dissolved in physiological saline was conducted immediately after MCA permanent occlusion (6 μg or 60 μg), thereafter continuous intravenous administration of ginsenoside Rb1 was performed for 28 days by using an Alza mini osmotic pump (6 μg/day or 60 μg/day).
After MCA permanent occlusion, according to the conventional method (Zhang B. et al., J. Stroke Cerebrovasc. Dis., 7, 1-9, 1998), water maze tests were performed for 4 days at the 2nd week and the 4th week, respectively, and the place navigation abilities of SH-SP rats were determined.
(§2) Male SH-SP rats at the age of 12-13 weeks, weighing 250-300 g, were used. The animals were bred in a room furnished with 12 hours light and dark cycles and water and feeds were supplied ad libitum. Blood pressure of the animals was 203±6.9 mmHg. The following experiments were conducted in accordance with the Guide for Animal Experimentation at Ehime University School of Medicine. The cortical branch of the left middle cerebral artery (MCA) of SH-SP rats, were coagulated and cut, while their rectal temperature was maintained at 37±0.2° C. under inhalation anesthesia.
Immediately after MCA permanent occlusion, 60 μl of physiological saline containing ginsenoside Rb1 at a concentration of 1 μg/μl or 0.1 μg/μl was injected once into the left femoral vein. […]
After the MCA permanent occlusion according to the conventional method (Zhang B. et al., J. Stroke Cerebrovase. Dis., 7, 1-9, 1998), water maze tests were performed for 4 days at the 2nd week and the 4th week, respectively, and place navigation abilities of SH-SP rats were determined. […]

[2] = test system: SH-SP rats with MCA permanent occlusion; experiment: Ratio of cerebrocortical infarction after MCA permanent occlusion, intravenous infusion; format: in vivo, rat
Procedure: as §1
After the water maze tests at the 4th week, the SH-SP rats were anesthetized with chloral hydrate, and they were perfused and fixed transcardially with 0.1 mole phosphate buffer containing 4% paraformaldehyde. The brains were dissected out and cerebrocortical infarcted areas were photographed. Areas of the left cerebral hemisphere and the left cerebrocortical infarct lesions were measured on the photographs by using an image analysis device. The left cerebrocortical infarcted areas were divided by the left cerebral hemispheric areas to calculate ratios of the cerebrocortical infarction (%).
as §2, with “The cortical branch of the left middle cerebral artery (MCA) of SH-SP rats, were coagulated and cut, while their rectal temperature was maintained at 37±0.2° C. under inhalation anesthesia.” left out
After termination of the water maze tests at the 4th week, the SH-SP rats were anesthetized with chloral hydrate, and they were perfused and fixed transcardially with 0.1 mole phosphate buffer containing 4% paraformaldehyde. […] Areas of the left cerebral hemisphere and the left cerebrocortical infarct lesions were measured on the photographs by using an image analysis device. […]

[3] = test system: cerebrocortical neurons from rats at embryonic age 17; experiment: Peroxidation of neuronal membrane lipids by ferrous sulfate and ascorbic acid (TBA); format: cell-based, rat; settings: 48 hours pretreatment
Procedure: Then the medium was changed to a fresh medium containing ferrous sulfate and ascorbic acid but not containing ginsenoside Rb1 and the neuronal culture was maintained for 2 hours to generate hydroxyl radicals for giving an oxidative injury to neuronal membrane. The generated neuronal membrane lipid peroxide was determined by photometrically measuring a fixed amount of thiobarbituric acid (TBA) after solubilizing the cells with sodium dodecyl sulfate.
Then the medium was changed to a fresh medium containing ferrous sulfate and ascorbic acid but no ginsenoside Rb1, and the neuronal culture was maintained for 2 hours to generate hydroxyl radicals for giving oxidative injury to neuronal membrane. The generated neuronal membrane lipid peroxide was photometrically determined by measuring the fixed amount of thiobarbituric acid (TBA) after solubilizing the cells with sodium dodecyl sulfate.

Bcl-xL mRNA = Bcl-xL mRNA expression in cultured nerve cells (RT-PCR); format: cell-based, rat; settings: 1 fg/ml or 100 fg/ml, 24 hours; compared with control (0 fg/ml)
Procedure: It was investigated whether ginsenoside Rb1 of the present invention can increase the expression of Bcl-xL gene or not. Experimental techniques followed those by Wen et al. (Wen T. -C., et al., J. Exp. Med., 188, 635-649, 1998). Total RNA was extracted from cultured nerve cells treated for 24 hours with ginsenoside Rb1 at the concentrations of 0 fg/ml, 1 fg/ml and 100 fg/ml. cDNA was prepared from DNase-treated total RNA (3 μg) by using oligo dT primer and reverse transcriptase (Moloney murine leukemia virus reverse transcriptase). Gene amplification reaction (polymerase chain reaction, PCR) was performed by using Taq polymerase under the following conditions: (1) 94° C., 2 minutes; (2) 94° C., 1.5 minute; 55° C., 1.5 minute; 72° C., 2 minutes constructed one cycle, and 25 cycles for Bcl-xL and 20 cycles for β-actin were performed; and (3) 72° C., 2 minutes.
PCR products were electrophoresed on 3% agarose gel and visualized by ethidium bromide staining. The expression of β-actin mRNA was used as an internal standard. […]

[4] = test system: gerbils loaded with 3 minute forebrain ischemia; experiment: TUNEL staining of hippocampal CA1 field after 3 minute forebrain ischemia, intracerebroventricular administration; format: in vivo, gerbil; settings: i.c.v. 2.5 or 25 ng single, then 60 or 600 ng/day for 1 week; 1 week after ischemia
Procedure: In order to analyze a suppressive effect of ginsenoside Rb1 on intracerebral apoptosis-like neuron death, the present inventors examined whether actually occurring pathological apoptosis-like neuron death in the mature brain can be reduced by administration of ginsenoside Rb1 or not. The three minute forebrain ischemia model of gerbils was used as model animal. It was reported that at one week after 3 minute ischemia, about one half of hippocampal CA1 pyramidal neurons degenerated (Sakanaka M., et al., Proc. Natl. Acad. Sci. USA, 95, 4635-4640, 1998). […] With this model animal, it was examined with TUNEL staining whether apoptosis-like neuron death on the 7th day after 3 minute ischemia could be suppressed by intracerebroventricular administration of ginsenoside Rb1 or not.
Immediately after 3 minute forebrain ischemia in gerbils under inhalation anesthesia, a single intracerebroventricular administration of ginsenoside Rb1 at the dose of 2.5 ng or 25 ng was performed, and subsequently ginsenoside Rb1 (60 ng/day or 600 ng/day) was continuously infused into the cerebral ventricles through an osmotic minipump for 1 week. At one week after 3 minute forebrain ischemia, the gerbils were perfused and fixed transcardially with phosphate buffer containing 4% paraformaldehyde under pentobarbital anesthesia and the brain was dissected out. […]

[5] = test system: cerebrocortical nerve cells (neurons) from rats at embryonic age 17
Procedure: After maintaining cerebrocortical nerve cells (neurons) from rats at embryonic age 17 in a serum-free culture medium for 4 or 5 days, the medium was replaced with a fresh medium containing or not containing ginsenoside Rb1 and the neurons were incubated for 24 hours. Then, SNP at the concentration of 100 μM was added to the medium for 10 minutes, and the nerve cells (neurons) were maintained in a medium containing ginsenoside Rb1 for 16 hours. Survival rate of the nerve cells was measured by using a redox indicator, alamar blue.
In the present experiments, ginsenoside Rb1 was added before and after SNP loading or only after SNP loading, and its effects were measured.
After maintaining cerebrocortical nerve cells (neurons) from rats at embryonic age 17 in a serum-free culture medium for 4 or 5 days, the medium was replaced with a fresh medium containing ginsenoside Rb1 at the concentrations of 1 fg/ml, 100 fg/ml and 100 pg/ml or no ginsenoside Rb1 (0 fg/ml), and the neurons were incubated for 24 hours. Thereafter a nitric oxide (NO) donor, sodium nitroprusside (SNP) at a concentration of 100 μM, was added to the medium for 10 minutes. Then the nerve cells (neurons) were maintained in a medium containing ginsenoside Rb1 for 16 hours. Survival rate of the nerve cells was measured by using a redox indicator, alamar blue.
Data are represented as a mean±SE. […]

[6] = in vivo
[7] = test system: transient forebrain ischemia model of gerbils; settings: cited from earlier work
[8] = test system: gerbils with occlusion of the common carotid arteries; settings: i.c.v. infusion starting immediately after 3 or 3.5 minute occlusion; cited from earlier work
[9] = test system: SH-SP rats with permanent occlusion of the MCA; settings: cited from earlier work
cultured nerve cells = settings: cited from earlier work
neuronal cells = settings: 0.11-11 μg/ml; cited from earlier work
nerve cells [10] = settings: approximately 500 μM (550 μg/ml); cited from earlier work
brain = settings: intraperitoneal administration; cited from earlier work
nerve cells [11] = settings: cited from earlier work
[12] = intracerebroventricular administration; cited from earlier work
[13] = in vivo; cited from earlier work
[14] = i.c.v. infusion starting immediately after permanent MCA occlusion

CC(C)=CCC[C@](C)(O[C@@H]1O[C@H](CO[C@@H]2O[C@H](CO)[C@@H](O)[C@H](O)[C@H]2O)[C@@H](O)[C@H](O)[C@H]1O)[C@H]1CC[C@]2(C)[C@@H]1[C@H](O)C[C@@H]1[C@@]3(C)CC[C@H](O[C@@H]4O[C@H](CO)[C@@H](O)[C@H](O)[C@H]4O[C@@H]4O[C@H](CO)[C@@H](O)[C@H](O)[C@H]4O)C(C)(C)[C@@H]3CC[C@]12C [ginsenoside Rb1]
learning disability in water maze tests, low dose ([1]; i.v. 6 μg/day, 3rd and 4th day at the 2nd and 4th week after MCA occlusion): significantly ameliorated
learning disability in water maze tests, high dose ([1]; i.v. 60 μg/day, 4th day at the 2nd week, 3rd and 4th days at the 4th week after MCA occlusion): significantly ameliorated
place navigation disability after MCA permanent occlusion (water maze) ([1]; intravenous infusion 6 or 60 μg/day for 28 days, compared with cerebral infarction group given physiological saline): significantly improved
ratio of cerebrocortical infarction ([2]; i.v. 6 or 60 μg/day for 28 days, compared with physiological saline group): significantly reduced
actual volume of infarction reduced to (fraction of control) ([2]; i.v. administration, worked out from area ratio): about ¼
mean ratio of cerebrocortical infarction compared with physiological saline group ([2]; i.v. ginsenoside Rb1 groups, reduced to): ≤ 50%
preventive effect on lipid peroxidation ([3]; 0.1-10 fg/ml): no preventive effects
preventive effect on peroxidation of nerve cell membrane lipid ([3]; 100 fg/ml): slightly confirmed
expression of Bcl-xL mRNA (Bcl-xL mRNA): increased
TUNEL-positive nerve cells in hippocampal CA1 field [4]: significantly reduced in a dose-dependent manner
apoptosis of nerve cells after SNP treatment ([5]; 1-100 fg/ml, added before and after SNP (100 μM, 10 minutes) or only after SNP): significantly suppressed
concentrations in extracellular fluid that suppress apoptosis of nerve cells ([5]; SNP-treated cultured neurons): 1 to 100 fg/mL
adverse effect on administered animals [6]: No adverse effect
delayed neuronal death and learning disability caused by 5 minute occlusion ([7]; i.p. 10 or 20 mg/kg once a day for one week in advance): significantly prevent
hippocampal CA1 pyramidal neurons rescued ([7]; i.p. 10 or 20 mg/kg/day before ischemic loading): about 30%
effect of intraperitoneal administration after ischemia ([7]; i.p. immediately after 3- or 5-minute occlusion of the common carotid arteries): no effect
delayed neuronal death and learning disability [8]: suppresses
suppressive effect on cerebral infarction ([9]; continuous i.c.v. infusion 0.6 μg/day after MCA occlusion): significant suppressive effect
curative effect on cerebral infarction ([9]; continuous i.c.v. infusion 6 μg/day or 0.06 μg/day after MCA occlusion): no curative effect
infarcted area in the cerebral cortex [9, 14]: significant reduction
ischemia-induced place navigation disability [9, 14]: ameliorated
neurotoxicity of free radicals (cultured nerve cells; 0.1-100 fg/ml): reduce the neurotoxicity
neuronal necrosis caused by ferrous sulfate (cultured nerve cells; 1-100 fg/ml previously admixed in culture medium): reduces neuronal necrosis
glutamate-mediated neurotoxicity (neuronal cells): reduce glutamate-mediated neurotoxicity
apoptosis-like nerve cell death (nerve cells [10]): has a possibility to prevent
action on the brain (brain): tranquilizing action
neurotoxicity at high concentrations (nerve cells [11]): increased neurotoxicity
brain temperature, cerebral blood flow and blood pressure [12]: no effects
detection in blood after oral administration [13]: can not be detected
